The EC50 is the midpoint of the concentration-response curve.

Converted amounts (≈) assume the structure as drawn.

Assay [1] concerns Botrytis cinerea. As to the kind of experiment: Curative antifungal activity against Botryotinia fuckeliana inoculated in strawberry fruit assessed as disease severity measuring lesion diameter at 300 ug AI/ml applied 24 hr post-inoculation. The format is functional.
In assay [2] the test system is Botrytis cinerea. The experiment in a line: Curative antifungal activity against Botryotinia fuckeliana inoculated in strawberry fruit assessed as disease control efficacy at 300 ug AI/ml applied 48 hr post-inoculation relative to control. The format is functional.
In assay [3] the test system is Botrytis cinerea. The experiment in a line: Curative antifungal activity against Botryotinia fuckeliana inoculated in strawberry fruit assessed as disease severity measuring lesion diameter at 300 ug AI/ml applied 48 hr post-inoculation. The format is functional.
Assay [4] relates to Botrytis cinerea. As to the kind of experiment: Antifungal activity against Botryotinia fuckeliana inoculated in strawberry fruit. It counts as functional, organism-based.
For assay [5], the system named is Botrytis cinerea. The experiment in a line: Curative antifungal activity against Botryotinia fuckeliana inoculated in strawberry fruit assessed as disease control efficacy at 300 ug AI/ml applied 96 hr post-inoculation relative to control. It counts as functional.
In assay [6] the test system is Botrytis cinerea. As to the kind of experiment: Protective antifungal activity against Botryotinia fuckeliana inoculated in fungicide-applied strawberry fruit assessed as disease severity measuring lesion diameter at 300 ug AI/ml applied 96 hr prior-inoculation. It counts as functional.
Assay [7] deals with Botrytis cinerea. The experiment in a line: Curative antifungal activity against Botryotinia fuckeliana inoculated in strawberry fruit assessed as disease severity measuring lesion diameter at 300 ug AI/ml applied 96 hr post-inoculation. It counts as functional.
The subject of assay [8] is Botrytis cinerea. The experiment in a line: Curative antifungal activity against Botryotinia fuckeliana inoculated in strawberry fruit assessed as disease control efficacy at 300 ug AI/ml applied 24 hr post-inoculation relative to control. The format is functional.
Assay [9] deals with Botrytis cinerea. As to the kind of experiment: Protective antifungal activity against Botryotinia fuckeliana inoculated in fungicide-applied strawberry fruit assessed as disease control efficacy at 300 ug AI/ml applied 48 hr prior inoculation relative to control. The format is functional.
Assay [10] has as its system Botrytis cinerea. As to the kind of experiment: Protective antifungal activity against Botryotinia fuckeliana inoculated in fungicide-applied strawberry fruit assessed as disease severity measuring lesion diameter at 300 ug AI/ml applied 48 hr prior inoculation. The format is functional.
Assay [11] relates to Botrytis cinerea. As to the kind of experiment: Protective antifungal activity against Botryotinia fuckeliana inoculated in fungicide-applied strawberry fruit assessed as disease control efficacy at 300 ug AI/ml applied 96 hr prior-inoculation relative to control. It counts as functional.
Assay [12] relates to Botrytis cinerea. As to the kind of experiment: Protective antifungal activity against Botryotinia fuckeliana inoculated in fungicide-applied strawberry fruit assessed as disease control efficacy at 300 ug AI/ml applied 24 hr prior inoculation relative to control. It counts as functional.
Assay [13] concerns Botrytis cinerea. As to the kind of experiment: Protective antifungal activity against Botryotinia fuckeliana inoculated in fungicide-applied strawberry fruit assessed as disease severity measuring lesion diameter at 300 ug AI/ml applied 24 hr prior inoculation. It counts as functional.
The subject of assay [14] is Botrytis cinerea. As to the kind of experiment: Curative antifungal activity against Botryotinia fuckeliana inoculated in strawberry fruit assessed as disease control efficacy at 100 ug AI/ml applied 24 hr post-inoculation relative to control. It counts as functional.
Assay [15] concerns Botrytis cinerea. The experiment in a line: Curative antifungal activity against Botryotinia fuckeliana inoculated in strawberry fruit assessed as disease severity measuring lesion diameter at 100 ug AI/ml applied 24 hr post-inoculation. The format is functional.
The subject of assay [16] is Botrytis cinerea. As to the kind of experiment: Curative antifungal activity against Botryotinia fuckeliana inoculated in strawberry fruit assessed as disease control efficacy at 100 ug AI/ml applied 48 hr post-inoculation relative to control. The format is functional.
Assay [17] has as its system Botrytis cinerea. The experiment in a line: Curative antifungal activity against Botryotinia fuckeliana inoculated in strawberry fruit assessed as disease severity measuring lesion diameter at 100 ug AI/ml applied 48 hr post-inoculation. The format is functional.
Assay [18] has as its system Botrytis cinerea. As to the kind of experiment: Curative antifungal activity against Botryotinia fuckeliana inoculated in strawberry fruit assessed as disease control efficacy at 100 ug AI/ml applied 96 hr post-inoculation relative to control. It counts as functional.
The test system of assay [19] is Botrytis cinerea. As to the kind of experiment: Protective antifungal activity against Botryotinia fuckeliana inoculated in fungicide-applied strawberry fruit assessed as disease severity measuring lesion diameter at 100 ug AI/ml applied 96 hr prior-inoculation. It counts as functional.
The subject of assay [20] is Botrytis cinerea. As to the kind of experiment: Curative antifungal activity against Botryotinia fuckeliana inoculated in strawberry fruit assessed as disease severity measuring lesion diameter at 100 ug AI/ml applied 96 hr post-inoculation. The format is functional.
Assay [21] relates to Botrytis cinerea. As to the kind of experiment: Protective antifungal activity against Botryotinia fuckeliana inoculated in fungicide-applied strawberry fruit assessed as disease control efficacy at 100 ug AI/ml applied 48 hr prior inoculation relative to control. It counts as functional.
Assay [22] deals with Botrytis cinerea. The experiment in a line: Protective antifungal activity against Botryotinia fuckeliana inoculated in fungicide-applied strawberry fruit assessed as disease severity measuring lesion diameter at 100 ug AI/ml applied 48 hr prior inoculation. It counts as functional.
Assay [23] concerns Botrytis cinerea. The experiment in a line: Protective antifungal activity against Botryotinia fuckeliana inoculated in fungicide-applied strawberry fruit assessed as disease control efficacy at 100 ug AI/ml applied 96 hr prior-inoculation relative to control. It counts as functional.
Assay [24] concerns Botrytis cinerea. The experiment in a line: Protective antifungal activity against Botryotinia fuckeliana inoculated in fungicide-applied strawberry fruit assessed as disease control efficacy at 100 ug AI/ml applied 24 hr prior inoculation relative to control. The format is functional.
The subject of assay [25] is Botrytis cinerea. The experiment in a line: Protective antifungal activity against Botryotinia fuckeliana inoculated in fungicide-applied strawberry fruit assessed as disease severity measuring lesion diameter at 100 ug AI/ml applied 24 hr prior inoculation. The format is functional.

Regarding `O=C(Nc1ccccc1-c1ccc(Cl)cc1)c1cccnc1Cl` [BOSCALID], the Activity with Botrytis cinerea [1] is listed as 4.7 mm; in the assay on Botrytis cinerea [3] it was 1.1 mm; in the assay on Botrytis cinerea [6] it was 3.4 mm; in the assay on Botrytis cinerea [7], 13.2 mm; in the assay with Botrytis cinerea [10], 3 mm; with Botrytis cinerea [13] it was 1.5 mm. In addition, the Efficacy in the assay on Botrytis cinerea [2] is reported as 94.1%; in the assay with Botrytis cinerea [5], 29.8%; in the assay on Botrytis cinerea [8] it was 74.7%; with Botrytis cinerea [9] it was 84%; in the assay with Botrytis cinerea [11], 81.8%; in the assay with Botrytis cinerea [12] it was 91.7%. In the assay on Botrytis cinerea [4], this compound gave a concentration for a half-maximal effect (EC50) of 0.09 µg/mL (≈ 0.262 µM).
In the assay on Botrytis cinerea [4], `COC(=O)Nc1nc2ccccc2[nH]1` [CARBENDAZIM] displayed an EC50 of 0.05 µg/mL (≈ 0.262 µM).
The compound `Cc1cc(C2CC2)nc(Nc2ccccc2)n1` [CYPRODINIL] registered an EC50 in the assay on Botrytis cinerea [4] of 0.007 µg/mL (≈ 0.0311 µM).
In the case of `CC1(C(=O)Nc2ccc(O)c(Cl)c2Cl)CCCCC1` [FENHEXAMID], the Efficacy is on record as 61.4% in the assay on Botrytis cinerea [14]; 89.2% with Botrytis cinerea [16]; 23.2% in the assay with Botrytis cinerea [18]; 97.6% in the assay on Botrytis cinerea [21]; 94.4% in the assay with Botrytis cinerea [23]; 99.2% in the assay with Botrytis cinerea [24]. Besides, the Activity with Botrytis cinerea [15] came out at 7.2 mm; in the assay on Botrytis cinerea [17] it was 2 mm; in the assay on Botrytis cinerea [19], 1 mm; in the assay with Botrytis cinerea [20] it was 14.5 mm; with Botrytis cinerea [22], 0.4 mm; with Botrytis cinerea [25] it was 0.1 mm. Also, in the assay on Botrytis cinerea [4], the concentration for a half-maximal effect (EC50) came to 0.04 µg/mL (≈ 0.132 µM).
In the assay on Botrytis cinerea [4], `N#Cc1c[nH]cc1-c1cccc2c1OC(F)(F)O2` [FLUDIOXONIL] showed an EC50 of 0.003 µg/mL (≈ 0.0121 µM).
In turn, `CC(C)NC(=O)N1CC(=O)N(c2cc(Cl)cc(Cl)c2)C1=O` [IPRODIONE] gave an EC50 with Botrytis cinerea [4] of 0.25 µg/mL (≈ 0.757 µM).
Still for that read-out and setting: with `COC(=O)N(OC)c1ccccc1COc1ccn(-c2ccc(Cl)cc2)n1` [PYRACLOSTROBIN] the figure was 0.01 µg/mL (≈ 0.0258 µM).
